The values that follow come from paper PMC6615261, “Repurposing Azithromycin and Rifampicin Against Gram-Negative Pathogens by Combination With Peptidomimetics” (Frontiers in Cellular and Infection Microbiology, 2019).

One experiment deals with E. coli ST131. The experiment in a line: Potentiation of additional antibiotics (COMPAN1F plates), MIC. In kind it is cell-based, Escherichia coli. The note with it: for MIC of antibiotic in presence of peptidomimetic 26: + 0.25 μM peptidomimetic 26; for MIC of antibiotic in presence of peptidomimetic 1: + 0.5 μM peptidomimetic 1; for MIC of antibiotic in presence of peptidomimetic 15: + 0.5 μM peptidomimetic 15; for MIC of antibiotic alone: no peptidomimetic. Here is the method:
(§1) Minimal inhibitory concentrations (MICs) of peptidomimetics, antibiotics and their combinations were determined by broth microdilution according to the Clinical Laboratory Standards Institute performance standards (Clinical and Laboratory Standards Institute, [2013]). […] Since rifampicin and azithromycin mainly are used to treat infections with Gram-positive pathogens only CLSI clinical breakpoints were available for such bacteria. […] Potentiation of additional antibiotics by peptidomimetics was determined by using commercial 96-well plates containing varied concentrations of standard antibiotics (COMPAN1F; Trek Diagnostic Systems Inc.). The peptidomimetics were added immediately prior to inoculation with pathogen, and then MICs were determined as above. The MICs of peptidomimetic/antibiotic combinations were determined according to the method above, and the concentration ratios were selected based upon checkerboard results with 2:1 and 1:4 ratio of peptidomimetic with rifampicin or azithromycin, respectively. Minimal bactericidal concentrations (MBCs) were determined by using growth-curve assay plates. MIC plates were prepared as above, and then the plates were incubated at 37°C with continuous shaking. Growth was recorded at 10 min intervals as optical density (OD) at 600 nm during 24 h. At 24 h, for wells without growth, a sample was diluted 10-fold in sterile saline (0.9% sodium chloride) and plated onto MHA, following CLSI guidelines (Clinical and Laboratory Standards Institute, [1999]).

The test system of the next experiment is K. pneumoniae ST258. The experiment is described as above. In kind it is cell-based, Klebsiella pneumoniae. As to conditions: for MIC of antibiotic in presence of peptidomimetic 1: + 1 μM peptidomimetic 1; for MIC of antibiotic in presence of peptidomimetic 15: + 1 μM peptidomimetic 15; for MIC of antibiotic in presence of peptidomimetic 26: + 1 μM peptidomimetic 26; for MIC of antibiotic alone: no peptidomimetic. The protocol: as §1

As for Penicillin, in the experiment with E. coli ST131, the “MIC of antibiotic in presence of peptidomimetic 26” value (from here on “MIC … of peptidomimetic 26”) was more than 8 µg/mL, the “MIC of antibiotic in presence of peptidomimetic 1” value was more than 8 µg/mL, the “MIC of antibiotic in presence of peptidomimetic 15” value (“MIC … of peptidomimetic 15” for short) was more than 8 µg/mL and the “MIC of antibiotic alone” value was more than 8 µg/mL. In the experiment with K. pneumoniae ST258, the “MIC of antibiotic in presence of peptidomimetic 1” value is more than 8 µg/mL, the “MIC … of peptidomimetic 15” value is more than 8 µg/mL, the “MIC … of peptidomimetic 26” value is more than 8 µg/mL and the “MIC of antibiotic alone” value was more than 8 µg/mL.

Turning to “Ticarcillin/clavulanic acid [Ticarcillin/clavulanic acid (2:1)]”, in the experiment with E. coli ST131, the “MIC of antibiotic in presence of peptidomimetic 1” value turned out to be 16 µg/mL, the “MIC … of peptidomimetic 15” value stood at 32 µg/mL and the “MIC of antibiotic alone” value was found to be 64 µg/mL. Moreover, in the experiment on K. pneumoniae ST258, the “MIC of antibiotic in presence of peptidomimetic 1” value is more than 64 µg/mL, the “MIC … of peptidomimetic 15” value was more than 64 µg/mL, the “MIC … of peptidomimetic 26” value was more than 64 µg/mL and the “MIC of antibiotic alone” value is more than 64 µg/mL.

Regarding Trimethoprim/sulfamethoxazole, in the experiment with E. coli ST131, the “MIC … of peptidomimetic 26” value was more than 38 µg/mL, the “MIC of antibiotic in presence of peptidomimetic 1” value was more than 38 µg/mL, the “MIC … of peptidomimetic 15” value is more than 38 µg/mL and the “MIC of antibiotic alone” value is more than 38 µg/mL. Moreover, in the experiment on K. pneumoniae ST258, the “MIC of antibiotic in presence of peptidomimetic 1” value was more than 38 µg/mL, the “MIC … of peptidomimetic 15” value is more than 38 µg/mL, the “MIC … of peptidomimetic 26” value was more than 38 µg/mL and the “MIC of antibiotic alone” value is more than 38 µg/mL.
